This is an account of results in article PMC11623267, “Inhibitors of malaria parasite cyclic nucleotide phosphodiesterases block asexual blood-stage development and mosquito transmission” (Science Advances, 2024).

One assay relates to P. falciparum Dd2-B2. The assay is described as follows: 72-hour flow cytometry EC50 assay, Dd2-B2 parental line. The assay is classed as cell-based, Plasmodium falciparum. The protocol:
(§1) Stocks of SAL-0010003 (5-benzyl), SAL-0010355 (5-aryl), and SAL-0010419 (2-alkyl) were made at 10 and 1 mM in DMSO. Aliquots in use were stored at −20°C, and long-term storage was at −80°C. All in vitro studies were done such that the final DMSO concentration was <0.5%. P. falciparum ABS parasites were cultured at 3% hematocrit in human O+ RBCs in RPMI 1640 medium, supplemented with 25 mM Hepes, 50 mg L-hypoxanthine, 2 mM L-glutamine, 0.225% sodium bicarbonate, 0.5% (w/v) AlbuMAX II (Invitrogen) and gentamycin (10 μg/ml), in modular incubator chambers (Billups-Rothenberg) at 5% O2, 5% CO2, and 90% N2 at 37°C. Dd2-B2 (obtained from T. Wellems, National Institute of Allergy and Infectious Diseases, National Institutes of Health) is a genetically homogenous line that was cloned from Dd2 by limiting dilution. To define the EC50 and EC90 values of ABS parasites, Dd2-B2 ring-stage cultures at 0.2% parasitemia and 1% hematocrit were exposed for 72 hours to a range of 10 drug concentrations that were twofold serially diluted in duplicates along with drug-free controls. Parasite survival was assessed by flow cytometry on an iQue flow cytometer (Sartorius) using SYBR Green and MitoTracker Deep Red FM (Life Technologies) as nuclear stain and vital dyes, respectively. After determination of the EC50 and EC90 values for the three compounds with the P. falciparum Dd2-B2 clone, one single-step selection was set up using 2 × 10^5 parasites in each well of a 96-well plate at a starting concentration of 3× EC90. Parasites were cleared from the culture rapidly, and cultures were screened three times weekly by flow cytometry and counted as positive for recrudescence when the overall parasitemia reached 0.3% and the parasites were visible on a blood smear. DNA was extracted from recrudescent lines using a QIAGEN QIAamp Blood Mini Kit, and libraries were prepared with the Illumina DNA Prep kit for whole-genome sequencing on the Illumina MiSeq using a V3 2 × 300–base pair flow cell.
(A flow cytometer gives signals particle by particle.)

Assay [1] has as its system P. falciparum Dd2-B2 lines selected under drug pressure. The assay is described as follows: 72-hour flow cytometry EC50 assay, lines selected under drug pressure. The assay is classed as cell-based, Plasmodium falciparum. As to conditions: for Mean fold change in EC50: selected lines vs Dd2-B2 parental line, ±SD. As for the experimental part:
Three examples of an additional compound series developed independently [NPD-2958, NPD-3518 ([31]), and NPD-3738; fig.
as §1

The test system of a further assay is HepG2 cells. The assay is described as follows: HepG2 cytotoxicity. The assay is classed as cell-based. From the text: Table 1. Key activity data for the three main chemical subseries against ABS parasites, parasite fractions, and HepG2 cells. ND, not determined; ×/÷ is the geometric mean with geometric SD. | column: HepG2 EC50 (nM) (selectivity index)
[2] abbreviates: read-out: EC50 Dd2-B2 parental line.
[3] abbreviates: read-out: EC50, line selected with the same NPD compound, Well 1.
Setting [4] is: read-out: EC50, line selected with the same NPD compound, Well 2.
The mark [5] stands for this setting: read-out: EC50, line selected with the same NPD compound, Well 3.
Setting [6] is: read-out: EC50, line selected with the same NPD compound, Well 4.

Like-named read-outs stand apart in the source and are kept apart here. A value given as a limit tells only on which side of the number the result lay.

In general, EC50 refers to the concentration that produces a half-maximal response.

With `CC(C)c1n[nH]c2c(=O)[nH]c(Cc3ccccc3Cl)nc12` [NPD-2958], the EC50 came out at 320 nM in the assay with P. falciparum Dd2-B2 (setting [2]); 2570 nM in assay [1] (setting [3]); 3370 nM in assay [1] (setting [4]); 2470 nM in assay [1] (setting [5]); 2440 nM in assay [1] (setting [6]). Besides, the “Mean fold change in EC50” value in assay [1] amounted to 8.5 ± 1.4 fold. The “EC50 shift, line selected with the same NPD compound, Well 1” value in assay [1] (vs Dd2-B2) stood at 8.1 fold. In addition, the “EC50 shift, line selected with the same NPD compound, Well 2” value in assay [1] (vs Dd2-B2) was determined as 10.5 fold. Besides, in assay [1] (vs Dd2-B2), the “EC50 shift, line selected with the same NPD compound, Well 3” value amounted to 7.7 fold. The “EC50 shift, line selected with the same NPD compound, Well 4” value in assay [1] (vs Dd2-B2) is 7.6 fold.

Take `CC(C)c1n[nH]c2c(=O)[nH]c(C3CCCCC3)nc12` [NPD-3518]: the EC50 worked out at 203 nM in the assay on P. falciparum Dd2-B2 (setting [2]); 2630 nM in assay [1] (setting [3]); 2290 nM in assay [1] (setting [4]); 2530 nM in assay [1] (setting [5]); 2510 nM in assay [1] (setting [6]). Besides, the “Mean fold change in EC50” value in assay [1] is recorded as 12.2 ± 0.7 fold. Besides, the “EC50 shift, line selected with the same NPD compound, Well 1” value in assay [1] (vs Dd2-B2) was 12.9 fold. The “EC50 shift, line selected with the same NPD compound, Well 2” value in assay [1] (vs Dd2-B2) is given as 11.2 fold. In assay [1] (vs Dd2-B2), the “EC50 shift, line selected with the same NPD compound, Well 3” value was 12.4 fold. In assay [1] (vs Dd2-B2), the “EC50 shift, line selected with the same NPD compound, Well 4” value was found to be 12.4 fold.

As to `CC(C)COc1ccc(C(=O)N2CC(N(C)C)C2)cc1-c1nc2c(C(C)C)n[nH]c2c(=O)[nH]1` [SAL-0010355], the EC50 in the assay on HepG2 cells (Homo sapiens, HepG2) was > 25000 nM; in the assay on P. falciparum Dd2-B2 (Plasmodium falciparum, DD2, read-out: EC50 Dd2-B2 parental line), 69.2 nM; in assay [1] (Plasmodium falciparum, DD2, read-out: EC50, line selected with SAL-0010355, Well B7), 430 nM; in assay [1] (Plasmodium falciparum, DD2, read-out: EC50, line selected with SAL-0010355, Well D7) it was 468 nM; in assay [1] (Plasmodium falciparum, DD2, read-out: EC50, line selected with SAL-0010355, Well D9), 371 nM. The HepG2 selectivity index in the assay on HepG2 cells (value in brackets after HepG2 EC50) is on record as 1,185. In assay [1], the “Mean fold change in EC50” value is 6.1 ± 0.7 fold. Also, the “EC50 shift, line selected with SAL-0010355, Well B7” value in assay [1] (vs Dd2-B2) came to 6.2 fold. Also, the “EC50 shift, line selected with SAL-0010355, Well D7” value in assay [1] (vs Dd2-B2) is 6.8 fold. Besides, the “EC50 shift, line selected with SAL-0010355, Well D9” value in assay [1] (vs Dd2-B2) came out at 5.4 fold.
